# Measured values from ChEMBL document CHEMBL3286119, “Biarylmethoxy Nicotinamides As Novel and Specific Inhibitors of Mycobacterium tuberculosis” (ACS Med Chem Lett, 2014).
# The source made the active and inactive calls. No cut-off for these calls is given here.
# Key:
# [1] = tested on: Mycobacterium tuberculosis; assay: Antimicrobial activity against Mycobacterium tuberculosis H37Rv ATCC 27294 after 5 days by microdilution method; type: functional; details: H37Rv ATCC 27294, 120 h
# [2] = Cytotoxicity against human THP1 cells after 24 hrs by resazurin assay; type: cell-based, THP-1; details: read-out: MIC
# Pseudomonas aeruginosa [3] = assay: Antimicrobial activity against Pseudomonas aeruginosa ARC546 after 5 days by microdilution method; type: functional; details: ARC546, 120 h
# Pseudomonas aeruginosa [4] = assay: Antimicrobial activity against Pseudomonas aeruginosa ARC545 after 5 days by microdilution method; type: functional; details: ARC545, 120 h
# Escherichia coli [5] = assay: Antimicrobial activity against Escherichia coli ARC523 after 5 days by microdilution method; type: functional; details: ARC523, 120 h
# Staphylococcus aureus = assay: Antimicrobial activity against Staphylococcus aureus ARC517 after 5 days by microdilution method; type: functional; details: ARC517, 120 h
# Haemophilus influenzae [6] = assay: Antimicrobial activity against Haemophilus influenzae ARC158 after 5 days by microdilution method; type: functional; details: ARC158, 120 h
# Klebsiella pneumoniae = assay: Antimicrobial activity against Klebsiella pneumoniae ARC1865 after 5 days by microdilution method; type: functional; details: ARC1865, 120 h
# Streptococcus pneumoniae = assay: Antimicrobial activity against Streptococcus pneumoniae ARC548 after 5 days by microdilution method; type: functional; details: ARC548, 120 h
# Escherichia coli [7] = assay: Antimicrobial activity against Escherichia coli ARC524 after 5 days by microdilution method; type: functional; details: ARC524, 120 h
# Haemophilus influenzae [8] = assay: Antimicrobial activity against Haemophilus influenzae ARC446 after 5 days by microdilution method; type: functional; details: ARC446, 120 h
# Streptococcus pyogenes = assay: Antimicrobial activity against Streptococcus pyogenes after 5 days by microdilution method; type: functional; details: 120 h
# Candida albicans = assay: Antimicrobial activity against Candida albicans ARC526 after 5 days by microdilution method; type: functional; details: ARC526, 120 h
# [9] = Lipophilicity, log D of the compound; type: physicochemical; details: octanol/water
# [10] = tested on: Mycobacterium tuberculosis; assay: Antimicrobial activity against Mycobacterium tuberculosis ATCC 35811 after 2 to 3 weeks; type: functional, organism-based
# [11] = tested on: Mycobacterium tuberculosis; assay: Antimicrobial activity against ofloxacin Mycobacterium tuberculosis 12119 after 2 to 3 weeks; type: functional, organism-based
# Cytochrome P450 3A4 = Cytochrome P450 3A4 (Homo sapiens, UniProt P08684); assay: Inhibition of CYP3A4 (unknown origin); type: ADME
# Cytochrome P450 2D6 = Cytochrome P450 2D6 (Homo sapiens, UniProt P10635); assay: Inhibition of CYP2D6 (unknown origin); type: ADME
# [12] = tested on: Mycobacterium tuberculosis; assay: Antimicrobial activity against Mycobacterium tuberculosis Erdman after 2 to 3 weeks; type: functional, organism-based
# Cytochrome P450 1A2 = molecular target: T1, Cytochrome P450 1A2 (Homo sapiens, UniProt P05177); assay: Inhibition of CYP1A2 (unknown origin); type: ADME
# T1 sequence (P05177 whole entry): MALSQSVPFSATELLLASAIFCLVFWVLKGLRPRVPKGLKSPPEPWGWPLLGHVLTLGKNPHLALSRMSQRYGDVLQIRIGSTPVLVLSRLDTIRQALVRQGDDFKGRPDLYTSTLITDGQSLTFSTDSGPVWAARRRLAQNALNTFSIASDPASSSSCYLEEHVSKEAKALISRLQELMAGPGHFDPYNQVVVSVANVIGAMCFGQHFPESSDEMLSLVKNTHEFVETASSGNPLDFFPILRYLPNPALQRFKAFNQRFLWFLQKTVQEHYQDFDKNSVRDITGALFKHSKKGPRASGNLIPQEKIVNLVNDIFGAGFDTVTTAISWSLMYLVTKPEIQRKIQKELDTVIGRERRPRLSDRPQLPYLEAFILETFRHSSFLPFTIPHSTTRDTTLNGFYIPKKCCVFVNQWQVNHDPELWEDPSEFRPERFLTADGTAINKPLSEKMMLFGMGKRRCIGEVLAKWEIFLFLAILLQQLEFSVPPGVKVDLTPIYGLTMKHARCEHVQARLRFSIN
# [13] = tested on: Mycobacterium tuberculosis; assay: Antimicrobial activity against Mycobacterium tuberculosis DKU 76 clinical isolate after 2 to 3 weeks; type: functional, organism-based
# [14] = tested on: Mycobacterium tuberculosis; assay: Antimicrobial activity against Mycobacterium tuberculosis Harlingen after 2 to 3 weeks; type: functional, organism-based
# [15] = tested on: Mycobacterium tuberculosis; assay: Antimicrobial activity against Mycobacterium tuberculosis ATCC 25618 after 2 to 3 weeks; type: functional, organism-based
# [16] = tested on: Mycobacterium tuberculosis; assay: Antimicrobial activity against Mycobacterium tuberculosis Beijing after 2 to 3 weeks; type: functional, organism-based
# [17] = tested on: Mycobacterium tuberculosis; assay: Antimicrobial activity against Mycobacterium tuberculosis DKU211 clinical isolate after 2 to 3 weeks; type: functional, organism-based
# [18] = tested on: Mycobacterium tuberculosis; assay: Antimicrobial activity against Mycobacterium tuberculosis 97A clinical isolate after 2 to 3 weeks; type: functional, organism-based
# [19] = tested on: Mycobacterium tuberculosis; assay: Antimicrobial activity against Mycobacterium tuberculosis DKU220 clinical isolate after 2 to 3 weeks; type: functional, organism-based
# [20] = tested on: Mycobacterium tuberculosis; assay: Antimicrobial activity against Mycobacterium tuberculosis JALMA clinical isolate after 2 to 3 weeks; type: functional, organism-based
# [21] = Fraction unbound in human plasma; type: ADME, cell-free
# Cytochrome P450 2C9 = Cytochrome P450 2C9 (Homo sapiens, UniProt P11712); assay: Inhibition of CYP2C9 (unknown origin); type: ADME
# [22] = Selectivity index, ratio of MIC for human THP1 cells to MIC for Mycobacterium tuberculosis H37Rv ATCC 27294; type: toxicity, cell-based, THP-1; details: read-out: Selectivity Index
# Cytochrome P450 2C19 = Cytochrome P450 2C19 (Homo sapiens, UniProt P33261); assay: Inhibition of CYP2C19 (unknown origin); type: ADME
# Cytochrome P450 2C19, sequence (P33261 whole entry): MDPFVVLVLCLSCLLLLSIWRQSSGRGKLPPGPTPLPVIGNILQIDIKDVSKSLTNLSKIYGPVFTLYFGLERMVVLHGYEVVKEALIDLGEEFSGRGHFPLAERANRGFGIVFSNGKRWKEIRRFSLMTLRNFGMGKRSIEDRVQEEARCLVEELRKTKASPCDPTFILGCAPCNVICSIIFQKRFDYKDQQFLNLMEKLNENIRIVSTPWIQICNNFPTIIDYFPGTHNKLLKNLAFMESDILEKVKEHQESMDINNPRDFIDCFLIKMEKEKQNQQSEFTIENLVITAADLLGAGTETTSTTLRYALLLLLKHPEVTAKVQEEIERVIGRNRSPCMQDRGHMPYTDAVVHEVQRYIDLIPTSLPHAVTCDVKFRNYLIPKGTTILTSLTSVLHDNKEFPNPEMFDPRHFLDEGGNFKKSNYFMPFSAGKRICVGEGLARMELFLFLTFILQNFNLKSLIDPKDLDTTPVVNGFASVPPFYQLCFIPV
# Cytochrome P450 2C9, sequence (P11712 whole entry): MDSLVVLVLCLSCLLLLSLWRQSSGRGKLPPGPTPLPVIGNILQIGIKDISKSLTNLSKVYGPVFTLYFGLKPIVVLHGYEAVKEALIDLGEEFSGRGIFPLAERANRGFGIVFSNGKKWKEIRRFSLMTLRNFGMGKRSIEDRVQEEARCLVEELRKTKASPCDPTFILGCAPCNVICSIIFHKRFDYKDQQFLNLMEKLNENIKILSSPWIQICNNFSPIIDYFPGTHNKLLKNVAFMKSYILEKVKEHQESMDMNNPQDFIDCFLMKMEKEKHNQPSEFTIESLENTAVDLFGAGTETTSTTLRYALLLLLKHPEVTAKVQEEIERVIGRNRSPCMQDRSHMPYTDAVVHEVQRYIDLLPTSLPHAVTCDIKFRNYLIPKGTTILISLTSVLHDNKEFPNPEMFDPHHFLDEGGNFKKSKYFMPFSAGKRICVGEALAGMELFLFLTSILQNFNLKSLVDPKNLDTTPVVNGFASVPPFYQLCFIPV
# Cytochrome P450 3A4, sequence (P08684 whole entry): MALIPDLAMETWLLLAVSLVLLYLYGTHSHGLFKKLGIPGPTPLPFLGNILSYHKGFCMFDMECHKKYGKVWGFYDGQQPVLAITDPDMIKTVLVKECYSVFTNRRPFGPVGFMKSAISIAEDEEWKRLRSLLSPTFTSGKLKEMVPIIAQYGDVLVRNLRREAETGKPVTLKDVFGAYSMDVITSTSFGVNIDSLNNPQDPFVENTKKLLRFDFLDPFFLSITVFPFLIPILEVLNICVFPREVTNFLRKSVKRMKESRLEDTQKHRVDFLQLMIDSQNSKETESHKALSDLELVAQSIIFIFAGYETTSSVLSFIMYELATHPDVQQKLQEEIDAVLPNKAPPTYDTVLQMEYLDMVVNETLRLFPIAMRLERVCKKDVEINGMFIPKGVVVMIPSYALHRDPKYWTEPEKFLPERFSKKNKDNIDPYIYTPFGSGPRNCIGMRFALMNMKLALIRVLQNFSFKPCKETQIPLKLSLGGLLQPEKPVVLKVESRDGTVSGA
# Cytochrome P450 2D6, sequence (P10635 whole entry): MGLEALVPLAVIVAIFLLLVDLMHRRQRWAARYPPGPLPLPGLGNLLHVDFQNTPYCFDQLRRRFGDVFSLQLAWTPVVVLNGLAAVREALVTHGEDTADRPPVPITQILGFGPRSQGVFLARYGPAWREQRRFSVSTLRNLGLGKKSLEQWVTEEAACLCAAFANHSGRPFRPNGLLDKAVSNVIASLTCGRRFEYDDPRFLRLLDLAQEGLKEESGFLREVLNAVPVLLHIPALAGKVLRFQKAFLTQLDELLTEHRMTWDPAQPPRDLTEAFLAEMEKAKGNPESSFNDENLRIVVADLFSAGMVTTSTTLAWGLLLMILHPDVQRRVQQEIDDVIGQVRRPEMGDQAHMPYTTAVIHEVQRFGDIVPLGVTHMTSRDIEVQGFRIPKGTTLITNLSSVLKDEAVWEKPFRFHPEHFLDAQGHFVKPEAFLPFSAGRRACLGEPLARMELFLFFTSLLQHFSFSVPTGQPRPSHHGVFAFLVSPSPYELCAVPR
smiles,measurement,setting,value
Cc1cc(OC[C@H]2CCCO2)ccc1-c1ccc(COc2ncccc2C(N)=O)nc1,MIC,[1],4.7 µM
same,MCC at 24 h,[2],> 50 µM
Cn1ccnc1-c1ccc(COc2ncccc2C(N)=O)cc1,MIC,[1],> 100 µM
same,MCC at 24 h,[2],> 50 µM
Cc1cc(OC[C@@H]2CCCO2)ccc1-c1ccc(COc2ncccc2C(N)=O)nc1,MIC,[1],1.2 µM
same,MCC at 24 h,[2],> 50 µM
COCCOc1ccc(-c2cnc(COc3ncccc3C(N)=O)nc2)c(Cl)c1,MIC,[1],0.47 µM
same,MCC at 24 h,[2],> 250 µM
COCCOc1ccc(-c2cnc(COc3ncccc3C(N)=O)nc2)c(C)c1,MIC80,Pseudomonas aeruginosa [3],> 60 µM
same,MIC,[1],1.5 µM
same,MIC,Pseudomonas aeruginosa [4],> 60 µM
same,MIC80,Escherichia coli [5],> 60 µM
same,MIC80,Staphylococcus aureus,> 60 µM
same,MCC at 24 h,[2],> 50 µM
same,MIC80,Haemophilus influenzae [6],> 60 µM
same,MIC80,Klebsiella pneumoniae,> 60 µM
same,MIC80,Streptococcus pneumoniae,> 60 µM
same,MIC80,Escherichia coli [7],> 60 µM
same,MIC80,Haemophilus influenzae [8],> 60 µM
same,MIC80,Streptococcus pyogenes,> 60 µM
same,MIC80,Candida albicans,> 60 µM
COCCOc1ccc(-c2ccc(COc3ncccc3C(=O)N(C)C)nc2)c(C)c1,MIC,[1],> 75 µM
same,MCC at 24 h,[2],> 50 µM
COCCOc1ccc(-c2ccc(COc3ncccc3C(=O)N3CCC(O)C3)nc2)c(C)c1 (stereo not drawn),MIC,[1],> 75 µM
same,MCC at 24 h,[2],> 50 µM
Cc1cc(OCCN2CCOCC2)ccc1-c1ccc(COc2ncccc2C(N)=O)nc1,MIC,[1],8.9 µM
same,MCC at 24 h,[2],> 50 µM
CNC(=O)c1cccnc1OCc1ccc(-c2ccc(OCCOC)cc2C)cn1,MIC,[1],1.2 µM
same,MCC at 24 h,[2],> 50 µM
Cc1cc(OCC2CCCO2)ccc1-c1ccc(COc2ncccc2C(N)=O)nc1 (stereo not drawn),logD,[9],2.8
same,MIC,[1],4.7 µM
same,MCC at 24 h,[2],> 50 µM
NC(=O)c1cccnc1OCc1ccc(-c2ccc(OCC3CCCO3)cc2Cl)cn1 (stereo not drawn),MIC80,Pseudomonas aeruginosa [3],> 60 µM
same,logD,[9],2.8
same,MIC,[1],1.1 µM
same,MIC,Pseudomonas aeruginosa [4],> 60 µM
same,MIC80,Escherichia coli [5],> 60 µM
same,MIC80,Staphylococcus aureus,> 60 µM
same,MCC at 24 h,[2],> 50 µM
same,MIC80,Haemophilus influenzae [6],> 60 µM
same,MIC80,Klebsiella pneumoniae,> 60 µM
same,MIC80,Streptococcus pneumoniae,> 60 µM
same,MIC80,Escherichia coli [7],> 60 µM
same,MIC80,Haemophilus influenzae [8],> 60 µM
same,MIC80,Streptococcus pyogenes,> 60 µM
same,MIC80,Candida albicans,> 60 µM
COc1ccc(-c2ccc(COc3ncccc3C(N)=O)nc2)c(C(F)(F)F)c1,MIC,[1],39.7 µM
COCCOc1ccc(-c2ccc(COc3ncccc3C(N)=O)nc2)c(C)c1,logD,[9],2.8
same,Activity,[10],Active
same,Activity,[11],Active
same,inhibition (INH),Cytochrome P450 3A4,Not Active
same,MIC,[1],0.6 µM
same,inhibition (INH),Cytochrome P450 2D6,Not Active
same,Activity,[12],Active
same,inhibition (INH),Cytochrome P450 1A2,Not Active
same,Activity,[13],Active
same,MCC at 24 h,[2],> 50 µM
same,Activity,[14],Active
same,Activity,[15],Active
same,Activity,[16],Active
same,Activity,[17],Active
same,Activity,[18],Active
same,Activity,[19],Active
same,Activity,[20],Active
same,fraction unbound,[21],0.042
COCCOc1ccc(-c2ccc(COc3ncccc3C(=O)NCCO)nc2)c(C)c1,MIC,[1],4.5 µM
same,MCC at 24 h,[2],> 50 µM
COc1ccc(-c2ccc(COc3ncccc3C(N)=O)nc2)c(C)c1,MIC,[1],22 µM
same,MCC at 24 h,[2],> 50 µM
CCN(CC)CCOc1ccc(-c2ccc(COc3ncccc3C(N)=O)nc2)c(C)c1,MIC,[1],> 100 µM
COc1ccc(-c2ccc(COc3ncccc3C(N)=O)cc2)c(C)n1,MIC,[1],> 100 µM
same,MCC at 24 h,[2],> 50 µM
COCCOc1ccc(-c2ccc(COc3ncccc3C(=O)NC3CCN(C)CC3)nc2)c(C)c1,MIC,[1],8.1 µM
same,MCC at 24 h,[2],> 50 µM
COCCOc1ccc(-c2ccc(COc3nccnc3C(N)=O)nc2)c(C)c1,MIC,[1],40.5 µM
same,MCC at 24 h,[2],> 50 µM
COc1ccc(-c2ccc(COc3ncccc3C(N)=O)nc2)c(Cl)c1,MIC,[1],5.4 µM
same,MCC at 24 h,[2],> 50 µM
CC(C)OCCOc1ccc(-c2cnc(COc3ncccc3C(N)=O)nc2)c(Cl)c1,MIC80,Pseudomonas aeruginosa [3],> 60 µM
same,IC50,Cytochrome P450 2C9,19 µM
same,logD,[9],2.8
same,Activity,[10],Active
same,Activity,[11],Active
same,MIC,[1],0.12 µM
same,MIC,Pseudomonas aeruginosa [4],> 60 µM
same,MIC80,Escherichia coli [5],> 60 µM
same,MIC80,Staphylococcus aureus,> 60 µM
same,Activity,[12],Active
same,Activity,[13],Active
same,MCC at 24 h,[2],> 250 µM
same,Activity,[14],Active
same,selectivity ratio,[22],> 2500
same,Activity,[15],Active
same,Activity,[16],Active
same,Activity,[17],Active
same,Activity,[18],Active
same,Activity,[19],Active
same,MIC80,Haemophilus influenzae [6],> 60 µM
same,Activity,[20],Active
same,MIC80,Klebsiella pneumoniae,> 60 µM
same,MIC80,Streptococcus pneumoniae,> 60 µM
same,MIC80,Escherichia coli [7],> 60 µM
same,MIC80,Haemophilus influenzae [8],> 60 µM
same,MIC80,Streptococcus pyogenes,> 60 µM
same,MIC80,Candida albicans,> 60 µM
COCCOc1ccc(-c2ccc(COc3nccc(OC)c3C(N)=O)nc2)c(C)c1,MIC,[1],6.2 µM
same,MCC at 24 h,[2],> 50 µM
NC(=O)c1cccnc1OCc1ccc(-c2ccccc2)cn1,MIC,[1],> 50 µM
NC(=O)c1cccnc1OCc1ncc(-c2ccc(OCCCF)cc2Cl)cn1,MIC80,Pseudomonas aeruginosa [3],> 60 µM
same,logD,[9],2.8
same,Activity,[10],Active
same,IC50,Cytochrome P450 2C19,18 µM
same,Activity,[11],Active
same,MIC,[1],0.12 µM
same,MIC,Pseudomonas aeruginosa [4],> 60 µM
same,MIC80,Escherichia coli [5],> 60 µM
same,MIC80,Staphylococcus aureus,> 60 µM
same,Activity,[12],Active
same,Activity,[13],Active
same,MCC at 24 h,[2],> 250 µM
same,Activity,[14],Active
same,Activity,[15],Active
same,Activity,[16],Active
same,Activity,[17],Active
same,Activity,[18],Active
same,Activity,[19],Active
same,MIC80,Haemophilus influenzae [6],> 60 µM
same,Activity,[20],Active
same,MIC80,Klebsiella pneumoniae,> 60 µM
same,MIC80,Streptococcus pneumoniae,> 60 µM
same,MIC80,Escherichia coli [7],> 60 µM
same,MIC80,Haemophilus influenzae [8],> 60 µM
same,MIC80,Streptococcus pyogenes,> 60 µM
same,MIC80,Candida albicans,> 60 µM
COc1ccc(-c2ccc(COc3ncccc3C(N)=O)nc2)c(F)c1,MIC,[1],16.9 µM
same,MCC at 24 h,[2],> 50 µM
CNS(=O)(=O)c1cccnc1OCc1ccc(-c2ccc(OCCOC)cc2C)cn1,MIC,[1],50 µM
same,MCC at 24 h,[2],> 50 µM
